The test system of one test is L. donovani (MHOM/SD/62/1S-CL2D, LdBOB) axenic amastigotes. The experiment in a line: Leishmania donovani axenic amastigote dose response assay (resazurin). Type of test: cell-based. The following applies: -logIC50 mol against L. donovani (LdBOB) axenic amastigotes, read-out: pIC50 Axenic (converted). Background: Resazurin is reduced to fluorescent resorufin, in cell work by metabolically active cells.
With `Cc1cc(C)n2nc(S(=O)(=O)Nc3ccccc3[N+](=O)[O-])nc2n1` [ST/512740], the IC50 is 9.33 µM.
On the same count and under the same terms, the result for `O=C(Nc1cccc(S(=O)(=O)Nc2ccccc2Cl)c1)c1ccc([N+](=O)[O-])o1` [ST/579040] reads 0.49 µM.
Turning to `O=C(Nc1scc(-c2ccc(Br)cc2)c1C(=O)O)c1ccccc1F` [ST/656010], the IC50 is 8.32 µM.
On the same count and under the same terms, the result for `COc1cc(OC)cc(C(=O)Nc2nnc(-c3ccccc3Cl)o2)c1` [ST/709938] reads 0.776 µM; that for `O=C(O)c1ccccc1Sc1ncnc2scc(-c3ccccc3)c12` [ST/837236], 9.77 µM; that for `NC(=O)c1ccsc1NC(=O)c1ccc([N+](=O)[O-])s1` [ST/918837], 0.331 µM.
Consider `CS(=O)(=O)c1oc(-c2ccc(F)cc2)nc1S(=O)(=O)c1ccc(Cl)cc1` [ST/1032211], for which the IC50 is 0.437 µM.
The same measure, in the same setting: for `COc1ccc(S(=O)(=O)Nc2cc([N+](=O)[O-])ccc2Cl)cc1C(C)C` [ST/1153644] the value was 10 µM; for `CN(C)S(=O)(=O)c1ccc(Cl)c(NS(=O)(=O)c2ccc(C(C)(C)C)cc2)c1` [ST/1238223], 6.76 µM; for `O=C(NC1CCN(Cc2ccc(Cl)s2)CC1)N1CCc2cc(Cl)ccc21` [ST/1291407], 2.88 µM.
As for `CC(=O)N1N=C(c2ccco2)OC1COc1ccc(Cl)cc1C` (stereo not drawn) [ST/1451140], the IC50 is 6.92 µM.
The same measure, in the same setting: for `CC(=O)N1N=C(COc2ccc(Cl)cc2C)OC1c1cccs1` (stereo not drawn) [ST/1455408] the value was 7.76 µM.

In the next test the test system is HepG2 cells. The test is described as follows: Mammalian cell cytotoxicity assay (CellTiter-Glo). Type of test: cell-based, human. The following applies: Homo sapiens; -logIC50 mol against HepG2; read-out: PIC50 HepG2 (converted).
On to `Cc1cc(C)n2nc(S(=O)(=O)Nc3ccccc3[N+](=O)[O-])nc2n1` [ST/512740], for which the IC50 is greater than 100 µM.
On the same count and under the same terms, the result for `O=C(Nc1cccc(S(=O)(=O)Nc2ccccc2Cl)c1)c1ccc([N+](=O)[O-])o1` [ST/579040] reads 22.4 µM; that for `O=C(Nc1scc(-c2ccc(Br)cc2)c1C(=O)O)c1ccccc1F` [ST/656010], greater than 100 µM; that for `COc1cc(OC)cc(C(=O)Nc2nnc(-c3ccccc3Cl)o2)c1` [ST/709938], 85.1 µM.
Take `O=C(O)c1ccccc1Sc1ncnc2scc(-c3ccccc3)c12` [ST/837236]: the IC50 was greater than 100 µM.
On to `NC(=O)c1ccsc1NC(=O)c1ccc([N+](=O)[O-])s1` [ST/918837], for which the IC50 is greater than 100 µM.
Still for that read-out and setting: for `CS(=O)(=O)c1oc(-c2ccc(F)cc2)nc1S(=O)(=O)c1ccc(Cl)cc1` [ST/1032211] the value was 17.4 µM.
On the same count and under the same terms, the result for `COc1ccc(S(=O)(=O)Nc2cc([N+](=O)[O-])ccc2Cl)cc1C(C)C` [ST/1153644] reads greater than 100 µM.
Same read-out and setting: the result for `CN(C)S(=O)(=O)c1ccc(Cl)c(NS(=O)(=O)c2ccc(C(C)(C)C)cc2)c1` [ST/1238223] reads greater than 100 µM; that for `O=C(NC1CCN(Cc2ccc(Cl)s2)CC1)N1CCc2cc(Cl)ccc21` [ST/1291407], 67.6 µM; that for `CC(=O)N1N=C(c2ccco2)OC1COc1ccc(Cl)cc1C` (stereo not drawn) [ST/1451140], greater than 100 µM.
For the molecule `CC(=O)N1N=C(COc2ccc(Cl)cc2C)OC1c1cccs1` (stereo not drawn) [ST/1455408], the IC50 is 97.7 µM.

The test is the same for the next values; noted with them: selectivity, pIC50 axenic minus pIC50 HepG2.
With `O=C(O)c1ccccc1Sc1ncnc2scc(-c3ccccc3)c12` [ST/837236], the “pSI v HepG2” value turned out to be 1.01.
On the same count and under the same terms, for `NC(=O)c1ccsc1NC(=O)c1ccc([N+](=O)[O-])s1` [ST/918837] the value was 2.48.

Staying with this test, now noted: selectivity: pIC50 axenic minus pIC50 HepG2.
`Cc1cc(C)n2nc(S(=O)(=O)Nc3ccccc3[N+](=O)[O-])nc2n1` [ST/512740]: the “pSI v HepG2” value came out at 1.03.
With `O=C(Nc1cccc(S(=O)(=O)Nc2ccccc2Cl)c1)c1ccc([N+](=O)[O-])o1` [ST/579040], the “pSI v HepG2” value came to 1.66.
On the same count and under the same terms, the result for `O=C(Nc1scc(-c2ccc(Br)cc2)c1C(=O)O)c1ccccc1F` [ST/656010] reads 1.08; that for `COc1cc(OC)cc(C(=O)Nc2nnc(-c3ccccc3Cl)o2)c1` [ST/709938], 2.04; that for `CS(=O)(=O)c1oc(-c2ccc(F)cc2)nc1S(=O)(=O)c1ccc(Cl)cc1` [ST/1032211], 1.60.
As to `COc1ccc(S(=O)(=O)Nc2cc([N+](=O)[O-])ccc2Cl)cc1C(C)C` [ST/1153644], the “pSI v HepG2” value is on record as 1.00.
The same measure, in the same setting: for `CN(C)S(=O)(=O)c1ccc(Cl)c(NS(=O)(=O)c2ccc(C(C)(C)C)cc2)c1` [ST/1238223] the value was 1.17; for `O=C(NC1CCN(Cc2ccc(Cl)s2)CC1)N1CCc2cc(Cl)ccc21` [ST/1291407], 1.37; for `CC(=O)N1N=C(c2ccco2)OC1COc1ccc(Cl)cc1C` (stereo not drawn) [ST/1451140], 1.16.
On the same count and under the same terms, the result for `CC(=O)N1N=C(COc2ccc(Cl)cc2C)OC1c1cccs1` (stereo not drawn) [ST/1455408] reads 1.10.

The next test relates to intra-macrophage Leishmania donovani amastigotes. The test is described as follows: Intramacrophage Leishmania donovani assay (high content imaging). Type of test: cell-based. The note with it: Leishmania donovani; intramacrophage L. donovani amastigotes; read-out: pIC50 InMac (converted).
With `O=C(O)c1ccccc1Sc1ncnc2scc(-c3ccccc3)c12` [ST/837236], the IC50 is 40.7 µM.
On the same count and under the same terms, for `NC(=O)c1ccsc1NC(=O)c1ccc([N+](=O)[O-])s1` [ST/918837] the value was 2.04 µM.

The same test, now with this note: Leishmania donovani; intramacrophage L. donovani; read-out: pIC50 InMac (converted).
Consider `Cc1cc(C)n2nc(S(=O)(=O)Nc3ccccc3[N+](=O)[O-])nc2n1` [ST/512740], for which the IC50 is greater than 50.1 µM.
Same read-out and setting: for `O=C(Nc1cccc(S(=O)(=O)Nc2ccccc2Cl)c1)c1ccc([N+](=O)[O-])o1` [ST/579040] the value was 11.2 µM; for `O=C(Nc1scc(-c2ccc(Br)cc2)c1C(=O)O)c1ccccc1F` [ST/656010], greater than 50.1 µM.
The same measure, in the same setting: for `COc1cc(OC)cc(C(=O)Nc2nnc(-c3ccccc3Cl)o2)c1` [ST/709938] the value was 26.3 µM.
The same measure, in the same setting: for `CS(=O)(=O)c1oc(-c2ccc(F)cc2)nc1S(=O)(=O)c1ccc(Cl)cc1` [ST/1032211] the value was 4.27 µM.
In the case of `COc1ccc(S(=O)(=O)Nc2cc([N+](=O)[O-])ccc2Cl)cc1C(C)C` [ST/1153644], the IC50 was 38.9 µM.
On the same count and under the same terms, the result for `CN(C)S(=O)(=O)c1ccc(Cl)c(NS(=O)(=O)c2ccc(C(C)(C)C)cc2)c1` [ST/1238223] reads greater than 50.1 µM; that for `O=C(NC1CCN(Cc2ccc(Cl)s2)CC1)N1CCc2cc(Cl)ccc21` [ST/1291407], 2.09 µM; that for `CC(=O)N1N=C(c2ccco2)OC1COc1ccc(Cl)cc1C` (stereo not drawn) [ST/1451140], greater than 50.1 µM.
For `CC(=O)N1N=C(COc2ccc(Cl)cc2C)OC1c1cccs1` (stereo not drawn) [ST/1455408], the IC50 is greater than 50.1 µM.

The next test concerns THP-1 macrophages. The experiment in a line: Host cell toxicity in the intramacrophage assay. Type of test: cell-based, human. The following applies: Homo sapiens; THP-1 host cells in intramacrophage assay; read-out: pIC50 THP-1 (converted).
As for `Cc1cc(C)n2nc(S(=O)(=O)Nc3ccccc3[N+](=O)[O-])nc2n1` [ST/512740], the IC50 is greater than 50.1 µM.
Consider `O=C(Nc1cccc(S(=O)(=O)Nc2ccccc2Cl)c1)c1ccc([N+](=O)[O-])o1` [ST/579040], for which the IC50 was 12 µM.
Still for that read-out and setting: the result for `O=C(Nc1scc(-c2ccc(Br)cc2)c1C(=O)O)c1ccccc1F` [ST/656010] reads greater than 50.1 µM.
Still for that read-out and setting: the result for `COc1cc(OC)cc(C(=O)Nc2nnc(-c3ccccc3Cl)o2)c1` [ST/709938] reads greater than 50.1 µM.
Regarding `O=C(O)c1ccccc1Sc1ncnc2scc(-c3ccccc3)c12` [ST/837236], the IC50 was greater than 50.1 µM.
On the same count and under the same terms, the result for `NC(=O)c1ccsc1NC(=O)c1ccc([N+](=O)[O-])s1` [ST/918837] reads 26.9 µM; that for `CS(=O)(=O)c1oc(-c2ccc(F)cc2)nc1S(=O)(=O)c1ccc(Cl)cc1` [ST/1032211], 3.63 µM.
Still for that read-out and setting: the result for `COc1ccc(S(=O)(=O)Nc2cc([N+](=O)[O-])ccc2Cl)cc1C(C)C` [ST/1153644] reads greater than 50.1 µM; that for `CN(C)S(=O)(=O)c1ccc(Cl)c(NS(=O)(=O)c2ccc(C(C)(C)C)cc2)c1` [ST/1238223], greater than 50.1 µM.
Still for that read-out and setting: for `O=C(NC1CCN(Cc2ccc(Cl)s2)CC1)N1CCc2cc(Cl)ccc21` [ST/1291407] the value was 6.03 µM; for `CC(=O)N1N=C(c2ccco2)OC1COc1ccc(Cl)cc1C` (stereo not drawn) [ST/1451140], greater than 50.1 µM; for `CC(=O)N1N=C(COc2ccc(Cl)cc2C)OC1c1cccs1` (stereo not drawn) [ST/1455408], greater than 50.1 µM.

Still in this test, the particulars now being: selectivity, pIC50 InMac minus pIC50 THP-1.
In the case of `O=C(O)c1ccccc1Sc1ncnc2scc(-c3ccccc3)c12` [ST/837236], the “pSI v THP-1” value is on record as 0.09.
Regarding `NC(=O)c1ccsc1NC(=O)c1ccc([N+](=O)[O-])s1` [ST/918837], the “pSI v THP-1” value was 1.12.

Still in this test, the particulars now being: selectivity: pIC50 InMac minus pIC50 THP-1.
On to `Cc1cc(C)n2nc(S(=O)(=O)Nc3ccccc3[N+](=O)[O-])nc2n1` [ST/512740], for which the “pSI v THP-1” value is 0.00.
Same read-out and setting: the result for `O=C(Nc1cccc(S(=O)(=O)Nc2ccccc2Cl)c1)c1ccc([N+](=O)[O-])o1` [ST/579040] reads 0.03; that for `O=C(Nc1scc(-c2ccc(Br)cc2)c1C(=O)O)c1ccccc1F` [ST/656010], 0.00; that for `COc1cc(OC)cc(C(=O)Nc2nnc(-c3ccccc3Cl)o2)c1` [ST/709938], 0.28.
On to `CS(=O)(=O)c1oc(-c2ccc(F)cc2)nc1S(=O)(=O)c1ccc(Cl)cc1` [ST/1032211], for which the “pSI v THP-1” value is -0.07.
The same measure, in the same setting: the result for `COc1ccc(S(=O)(=O)Nc2cc([N+](=O)[O-])ccc2Cl)cc1C(C)C` [ST/1153644] reads 0.11; that for `CN(C)S(=O)(=O)c1ccc(Cl)c(NS(=O)(=O)c2ccc(C(C)(C)C)cc2)c1` [ST/1238223], 0.00; that for `O=C(NC1CCN(Cc2ccc(Cl)s2)CC1)N1CCc2cc(Cl)ccc21` [ST/1291407], 0.46.
With `CC(=O)N1N=C(c2ccco2)OC1COc1ccc(Cl)cc1C` (stereo not drawn) [ST/1451140], the “pSI v THP-1” value was determined as 0.00.
On the same count and under the same terms, the result for `CC(=O)N1N=C(COc2ccc(Cl)cc2C)OC1c1cccs1` (stereo not drawn) [ST/1455408] reads 0.00.

For the origin of these results see publication PMC5834442, “Identifying inhibitors of the Leishmania inositol phosphorylceramide synthase with antiprotozoal activity using a yeast-based assay and ultra-high throughput screening platform” (Scientific Reports, 2018).
